This test has as its target T1, VAP-1 in human plasma (Homo sapiens, UniProt Q16853).
T1 construct: from tissue; host or cells: human whole plasma from donated blood (Münster University Hospital)
T1 sequence (Q16853 27-763 limits assumed): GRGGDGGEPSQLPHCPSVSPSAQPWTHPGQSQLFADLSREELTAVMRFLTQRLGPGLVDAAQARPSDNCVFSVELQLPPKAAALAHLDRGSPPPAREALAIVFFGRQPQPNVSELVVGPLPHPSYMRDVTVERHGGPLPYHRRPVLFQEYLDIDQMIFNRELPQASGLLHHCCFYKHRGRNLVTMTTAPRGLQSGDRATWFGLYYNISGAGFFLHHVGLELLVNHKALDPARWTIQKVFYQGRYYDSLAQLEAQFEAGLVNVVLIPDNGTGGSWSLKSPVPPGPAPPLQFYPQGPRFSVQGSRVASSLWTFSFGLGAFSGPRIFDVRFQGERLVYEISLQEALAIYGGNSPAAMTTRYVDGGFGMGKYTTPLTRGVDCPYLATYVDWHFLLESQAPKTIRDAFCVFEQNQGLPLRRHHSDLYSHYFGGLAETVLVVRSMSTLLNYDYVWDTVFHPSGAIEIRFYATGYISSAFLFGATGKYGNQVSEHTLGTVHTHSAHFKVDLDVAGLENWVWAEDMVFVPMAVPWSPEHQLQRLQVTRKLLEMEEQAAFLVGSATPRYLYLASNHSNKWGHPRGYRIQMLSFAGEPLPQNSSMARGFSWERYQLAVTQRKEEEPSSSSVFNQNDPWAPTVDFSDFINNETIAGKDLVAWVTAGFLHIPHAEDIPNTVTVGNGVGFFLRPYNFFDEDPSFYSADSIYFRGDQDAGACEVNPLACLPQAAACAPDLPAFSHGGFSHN
In words: Inhibition of VAP-1 activity in human whole plasma. Format: biochemical. Conditions: 15 min pre-incubation of enzyme and inhibitor.

The record followed here is PMC12914920, “Novel glycine amides, semicarbazides and fluoroallylamines as inhibitors of the amine oxidase vascular adhesion protein-1 (VAP-1)” (RSC Medicinal Chemistry, 2026).

The structures appear in SMILES notation.

Method: Preparation of human plasma: Human blood was collected in S-Monovette® Lithium-Heparin LH/7.5 mL (Sarstedt, Nümbrecht, Germany) during a blood donation at Münster University Hospital. Each about 5 mL of blood were pipetted into 10 mL Falcon Tubes and subsequently centrifuged at 1500 × g at 20 °C for 15 min. Aliquots of 800 μL plasma were transferred into 2 mL Eppendorf tubes and stored at −80 °C until further use.
Incubation procedure: A solution of the appropriate inhibitor in DMSO (concentration variable) (1.25 μL) was treated with human whole plasma (47.5 μL) and pre-incubated at 37 °C for 15 min. Subsequently, the enzyme reaction was started by the addition of a solution of the substrate 6-(5-phenyl-2H-tetrazol-2-yl)hexan-1-amine[47] (10 mM) in DMSO (1.25 μL). After 2 h of incubation, acetonitrile (50 μL) was added. The samples were cooled in an ice bath for 10 min and centrifuged at 12 000 × g and 10 °C for 10 min. […] Controls with DMSO (1.25 μL) instead of a DMSO solution of the inhibitor (1.25 μL) were prepared in the same manner in parallel (n = 3). Blanks were run by incubating a mixture of the substrate solution in DMSO and DMSO (1.25 μL each) and 47.5 μL of PBS in the same way. […] The peak ratios of enzyme product and internal standard obtained in the absence and presence of a test compound were compared, corrected for the blank value.

In general, IC50 refers to the concentration that inhibits the measured activity by half. In turn, `N#Cc1ccc(-c2nnn(Cc3cccc(CNC(=O)CN)c3)n2)cc1` [Compound 63] yielded a half-maximal inhibitory concentration (IC50) of 320 nM.
